Publication PMC12452633 (RSC Medicinal Chemistry, 2025)

Legend:
[1] = biological target: Ku70/80 (Homo sapiens, UniProt P12956+P13010); assay: Ku–DNA binding EMSA; settings: for IC50: Ku70/80 (IC50), purified Ku70/80, direct DNA binding activity by EMSA
[2] = biological target: DNA-PK (Homo sapiens, UniProt P12956+P13010); assay: DNA-PK phosphoryl-transferase catalytic; type: biochemical
[3] = CF3 in place of CH3 on pyrazolone ring

DNA-PK, sequence (P12956 whole entry): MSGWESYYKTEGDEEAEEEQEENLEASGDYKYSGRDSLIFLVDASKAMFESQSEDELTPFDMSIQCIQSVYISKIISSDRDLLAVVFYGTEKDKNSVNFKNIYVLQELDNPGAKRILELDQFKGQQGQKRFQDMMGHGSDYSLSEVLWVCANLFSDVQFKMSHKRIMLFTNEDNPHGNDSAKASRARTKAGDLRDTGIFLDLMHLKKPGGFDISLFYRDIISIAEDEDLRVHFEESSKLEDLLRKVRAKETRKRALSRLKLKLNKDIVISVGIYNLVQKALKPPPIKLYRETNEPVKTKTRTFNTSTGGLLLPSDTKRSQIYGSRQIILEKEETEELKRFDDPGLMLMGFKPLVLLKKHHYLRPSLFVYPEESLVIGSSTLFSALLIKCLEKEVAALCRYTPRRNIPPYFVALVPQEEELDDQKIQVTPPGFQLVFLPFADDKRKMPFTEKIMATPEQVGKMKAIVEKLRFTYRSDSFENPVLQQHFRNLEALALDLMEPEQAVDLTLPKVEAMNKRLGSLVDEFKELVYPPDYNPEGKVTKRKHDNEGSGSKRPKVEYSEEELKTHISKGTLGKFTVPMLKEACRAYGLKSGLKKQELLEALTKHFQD
DNA-PK, sequence (P13010 whole entry): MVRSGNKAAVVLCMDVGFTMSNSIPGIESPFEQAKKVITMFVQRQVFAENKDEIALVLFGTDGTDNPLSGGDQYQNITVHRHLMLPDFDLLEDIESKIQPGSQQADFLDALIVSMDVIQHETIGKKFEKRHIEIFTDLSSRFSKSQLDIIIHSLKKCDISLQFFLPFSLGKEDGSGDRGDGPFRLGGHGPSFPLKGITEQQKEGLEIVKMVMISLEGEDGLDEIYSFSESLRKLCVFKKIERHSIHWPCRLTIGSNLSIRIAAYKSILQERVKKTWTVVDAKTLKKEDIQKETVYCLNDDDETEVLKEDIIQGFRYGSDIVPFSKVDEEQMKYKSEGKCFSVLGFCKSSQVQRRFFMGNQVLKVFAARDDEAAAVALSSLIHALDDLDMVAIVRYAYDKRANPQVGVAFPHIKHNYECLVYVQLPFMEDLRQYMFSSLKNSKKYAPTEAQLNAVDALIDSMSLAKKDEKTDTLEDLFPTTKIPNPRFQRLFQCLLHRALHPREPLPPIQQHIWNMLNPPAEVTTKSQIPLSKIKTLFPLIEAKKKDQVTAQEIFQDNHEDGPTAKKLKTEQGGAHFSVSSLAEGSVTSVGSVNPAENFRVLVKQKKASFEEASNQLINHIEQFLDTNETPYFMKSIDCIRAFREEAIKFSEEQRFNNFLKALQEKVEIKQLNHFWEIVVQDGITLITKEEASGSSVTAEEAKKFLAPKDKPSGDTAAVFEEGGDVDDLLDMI
Ku70/80, sequence (P12956 whole entry): as the sequence (P12956 whole entry) above
Ku70/80, sequence (P13010 whole entry): as the sequence (P13010 whole entry) above

## O=C(O)c1cccc(N2N=C(C(F)(F)F)/C(=C/c3ccc(-c4ccc(Cl)c(C(=O)O)c4)o3)C2=O)c1 [Compound 16, (Z)-5-(5-((1-(3-carboxyphenyl)-5-oxo-3-(trifluoromethyl)-1,5-dihydro-4H-pyrazol-4-ylidene)methyl)furan-2-yl)-2-chlorobenzoic acid]
[1]
  IC50: 16.4 ± 3.94 µM

## CC1=NN(c2cccc(C(=O)O)c2)C(=O)/C1=C\c1ccc(-c2ccc(Cl)c(C(=O)NCc3ccccc3)c2)o1 [Compound 37, (Z)-3-(4-((5-(3-(Benzylcarbamoyl)-4-chlorophenyl)furan-2-yl)methylene)-3-methyl-5-oxo-4,5-dihydro-1H-pyrazol-1-yl)benzoic acid]
[1]
  IC50: 8.22 ± 0.45 µM
[2]
  IC50: 0.83 ± 0.09 µM

## CC1=NN(c2cccc(C(=O)O)c2)C(=O)/C1=C\c1ccc(-c2ccc(Cl)c(C(=O)NCc3ccccc3Cl)c2)o1 [Compound 38, (Z)-3-(4-((5-(4-Chloro-3-((2-chlorobenzyl)carbamoyl)phenyl)furan-2-yl)methylene)-3-methyl-5-oxo-4,5-dihydro-1H-pyrazol-1-yl)benzoic acid]
[1]
  IC50: 3.55 ± 0.4 µM
[2]
  IC50: 1.74 ± 0.61 µM

## CC1=NN(c2cccc(C(=O)O)c2)C(=O)/C1=C\c1ccc(-c2ccc(Cl)c(C(=O)NCC3CCCCC3)c2)o1 [Compound 39, (Z)-3-(4-((5-(4-Chloro-3-((cyclohexylmethyl)carbamoyl)phenyl)furan-2-yl)methylene)-3-methyl-5-oxo-4,5-dihydro-1H-pyrazol-1-yl)benzoic acid]
[1]
  IC50: 22.6 ± 4.4 µM

## COc1cccc(NC(=O)c2cc(-c3ccc(/C=C4\C(=O)N(c5cccc(C(=O)O)c5)N=C4C)s3)ccc2Cl)c1 [Compound 40, (Z)-3-(4-((5-(4-Chloro-3-((3-methoxyphenyl)carbamoyl)phenyl)thiophen-2-yl)methylene)-3-methyl-5-oxo-4,5-dihydro-1H-pyrazol-1-yl)benzoic acid]
[1]
  IC50: 7.18 ± 2.24 µM
[2]
  IC50: 1.72 ± 0.18 µM

## COc1cccc(NC(=O)c2cc(-c3ccc(/C=C4\C(=O)N(c5ccc(C(=O)O)cc5)N=C4C)s3)ccc2Cl)c1 [Compound 41, (Z)-4-(4-((5-(4-Chloro-3-((3-methoxyphenyl)carbamoyl)phenyl)thiophen-2-yl)methylene)-3-methyl-5-oxo-4,5-dihydro-1H-pyrazol-1-yl)benzoic acid]
[1]
  IC50: 9.04 ± 0.36 µM
[2]
  IC50: 0.53 ± 0.07 µM

## CC1=NN(c2cccc(C(=O)O)c2)C(=O)/C1=C\c1ccc(-c2ccc(Cl)c(C(=O)NCC3CC3)c2)s1 [Compound 42, (Z)-3-(4-((5-(4-Chloro-3-((cyclopropylmethyl)carbamoyl)phenyl)thiophen-2-yl)methylene)-3-methyl-5-oxo-4,5-dihydro-1H-pyrazol-1-yl)benzoic acid]
[1]
  IC50: 11.1 ± 0.76 µM
[2]
  IC50: 3.04 ± 0.7 µM

## CC1=NN(c2cccc(C(=O)O)c2)C(=O)/C1=C\c1ccc(-c2ccc(Cl)c(C(=O)NCc3ccc(F)cc3)c2)s1 [Compound 43, (Z)-3-(4-((5-(4-Chloro-3-((4-fluorobenzyl)carbamoyl)phenyl)thiophen-2-yl)methylene)-3-methyl-5-oxo-4,5-dihydro-1H-pyrazol-1-yl)benzoic acid]
[1]
  IC50: 10.1 ± 1.4 µM
[2]
  IC50: 3.24 µM

## COc1cccc(NC(=O)c2cc(-c3ccc(/C=C4\C(=O)N(c5cccc(C(=O)O)c5)N=C4C)[nH]3)ccc2Cl)c1 [Compound 44, (Z)-3-(4-((5-(4-Chloro-3-((3-methoxyphenyl)carbamoyl)phenyl)-1H-pyrrol-2-yl)methylene)-3-methyl-5-oxo-4,5-dihydro-1H-pyrazol-1-yl)benzoic acid]
[1]
  IC50: 9.77 ± 4.16 µM
[2]
  IC50: 1.57 ± 0.73 µM

## CC1=NN(c2cccc(C(=O)O)c2)C(=O)/C1=C\c1ccc(-c2ccc(Cl)c(C(=O)Nc3cccc(OC(F)(F)F)c3)c2)[nH]1 [Compound 45, (Z)-3-(4-((5-(4-Chloro-3-((3-(trifluoromethoxy)phenyl)carbamoyl)phenyl)-1H-pyrrol-2-yl)methylene)-3-methyl-5-oxo-4,5-dihydro-1H-pyrazol-1-yl)benzoic acid]
[1]
  IC50: 6.9 ± 1 µM
[2]
  IC50: 0.53 ± 0.18 µM

## COc1cccc(CNC(=O)c2cc(-c3ccc(/C=C4\C(=O)N(c5ccc(C(=O)O)cc5)N=C4C)o3)ccc2Cl)c1 [Compound 47, (Z)-4-(4-((5-(4-Chloro-3-((3-methoxybenzyl)carbamoyl)phenyl)furan-2-yl)methylene)-3-methyl-5-oxo-4,5-dihydro-1H-pyrazol-1-yl)benzoic acid]
[1]
  IC50: > 25 µM
[2]
  IC50: 0.48 ± 0.048 µM

## CC1=NN(c2ccc(C(=O)O)cc2)C(=O)/C1=C\c1ccc(-c2ccc(Cl)c(C(=O)NCc3ccccc3)c2)o1 [Compound 48, (Z)-4-(4-((5-(3-(Benzylcarbamoyl)-4-chlorophenyl)furan-2-yl)methylene)-3-methyl-5-oxo-4,5-dihydro-1H-pyrazol-1-yl)benzoic acid]
[1]
  IC50: 22.4 ± 4.19 µM
[2]
  IC50: 0.48 ± 0.016 µM

## CC1=NN(c2ccc(C(=O)O)cc2)C(=O)/C1=C\c1ccc(-c2ccc(Cl)c(C(=O)NCc3cccnc3)c2)o1 [Compound 49, (Z)-4-(4-((5-(4-Chloro-3-((pyridin-3-ylmethyl)carbamoyl)phenyl)furan-2-yl)methylene)-3-methyl-5-oxo-4,5-dihydro-1H-pyrazol-1-yl)benzoic acid]
[1]
  IC50: > 25 µM
[2]
  IC50: 2.5 µM

## COc1cccc(NC(=O)c2cc(-c3ccc(/C=C4\C(=O)N(c5cccc(C(=O)O)c5)N=C4C(F)(F)F)o3)ccc2Cl)c1 [Compound 50, (Z)-3-(4-((5-(4-Chloro-3-((3-methoxyphenyl)carbamoyl)phenyl)furan-2-yl)methylene)-5-oxo-3-(trifluoromethyl)-4,5-dihydro-1H-pyrazol-1-yl)benzoic acid]
[1]; [3]
  increase in Ku inhibitory activity: 2 fold
[1]
  IC50: 3.36 ± 0.52 µM
[2]; [3]
  increase in DNA-PK inhibitory activity: ~20 fold

## O=C(O)c1cccc(N2N=C(C(F)(F)F)/C(=C/c3ccc(-c4ccc(Cl)c(C(=O)NCC5CC5)c4)o3)C2=O)c1 [Compound 51, (Z)-3-(4-((5-(4-Chloro-3-((cyclopropylmethyl)carbamoyl)phenyl)furan-2-yl)methylene)-5-oxo-3-(trifluoromethyl)-4,5-dihydro-1H-pyrazol-1-yl)benzoic acid]
[1]
  IC50: 11.4 ± 8.26 µM
[2]
  IC50: 0.35 µM

## O=C(O)c1cccc(N2N=C(C(F)(F)F)/C(=C/c3ccc(-c4ccc(Cl)c(C(=O)NCc5ccc(F)cc5)c4)o3)C2=O)c1 [Compound 52, (Z)-3-(4-((5-(4-Chloro-3-((4-fluorobenzyl)carbamoyl)phenyl)furan-2-yl)methylene)-5-oxo-3-(trifluoromethyl)-4,5-dihydro-1H-pyrazol-1-yl)benzoic acid]
[1]
  IC50: 9.15 ± 0.68 µM
[2]
  IC50: 0.25 µM

## COc1ccc(NC(=O)c2cc(-c3ccc(CC4C(=O)N(c5cccc(C(=O)O)c5)N=C4C)o3)ccc2Cl)cc1OC (centres unmarked) [Compound 54, 3-(4-((5-(4-Chloro-3-((3,4-dimethoxyphenyl)carbamoyl)phenyl)furan-2-yl)methyl)-3-methyl-5-oxo-4,5-dihydro-1H-pyrazol-1-yl)benzoic acid]
[1]
  IC50: 9.97 ± 0.4 µM
[2]
  IC50: 1.12 ± 0.17 µM

## COc1cccc(NC(=O)c2cc(-c3ccc(CC4C(=O)N(c5ccc(C(=O)O)cc5)N=C4C)o3)ccc2Cl)c1 (centres unmarked) [Compound 55, 4-(4-((5-(4-Chloro-3-((3-methoxyphenyl)carbamoyl)phenyl)furan-2-yl)methyl)-3-methyl-5-oxo-4,5-dihydro-1H-pyrazol-1-yl)benzoic acid]
[1]
  IC50: 7.67 ± 2.95 µM
[2]
  IC50: 0.808 ± 0.037 µM

## COc1cccc(CNC(=O)c2cc(-c3ccc(CC4C(=O)N(c5ccc(C(=O)O)cc5)N=C4C)o3)ccc2Cl)c1 (centres unmarked) [Compound 56, 4-(4-((5-(4-Chloro-3-((3-methoxybenzyl)carbamoyl)phenyl)furan-2-yl)methyl)-3-methyl-5-oxo-4,5-dihydro-1H-pyrazol-1-yl)benzoic acid]
[1]
  IC50: 12.4 ± 3.8 µM
[2]
  IC50: 0.49 ± 0.08 µM

## COc1cccc(NC(=O)c2cc(-c3ccc(CC4C(=O)N(c5cccc(C(=O)O)c5)N=C4C)s3)ccc2Cl)c1 (centres unmarked) [Compound 57, 3-(4-((5-(4-Chloro-3-((3-methoxyphenyl)carbamoyl)phenyl)thiophen-2-yl)methyl)-3-methyl-5-oxo-4,5-dihydro-1H-pyrazol-1-yl)benzoic acid]
[1]
  IC50: 6.09 ± 0.36 µM
[2]
  IC50: 0.4 ± 0.04 µM

## CC1=NN(c2cccc(C(=O)O)c2)C(=O)C1Cc1ccc(-c2ccc(Cl)c(C(=O)NCc3ccc(F)cc3)c2)s1 (centres unmarked) [Compound 60, 3-(4-((5-(4-Chloro-3-((4-fluorobenzyl)carbamoyl)phenyl)thiophen-2-yl)methyl)-3-methyl-5-oxo-4,5-dihydro-1H-pyrazol-1-yl)benzoic acid]
[1]
  IC50: 4.1 ± 0.3 µM
[2]
  IC50: 2.66 ± 1.74 µM

## O=C(O)c1cccc(N2N=C(C(F)(F)F)C(Cc3ccc(-c4ccc(Cl)c(C(=O)NCC5CC5)c4)o3)C2=O)c1 (centres unmarked) [Compound 62, 3-(4-((5-(4-Chloro-3-((cyclopropylmethyl)carbamoyl)phenyl)furan-2-yl)methyl)-5-oxo-3-(trifluoromethyl)-4,5-dihydro-1H-pyrazol-1-yl)benzoic acid]
[1]
  IC50: 14.2 ± 0.21 µM

## COc1cccc(NC(=O)c2cc(-c3ccc(/C=C4\C(=O)N(c5ccc(S(N)(=O)=O)cc5)N=C4C)o3)ccc2Cl)c1 [Compound 67, (Z)-2-Chloro-N-(3-methoxyphenyl)-5-(5-((3-methyl-5-oxo-1-(4-sulfamoylphenyl)-1,5-dihydro-4H-pyrazol-4-ylidene)methyl)furan-2-yl)benzamide]
[1]
  IC50: 11.3 ± 2.16 µM
[2]
  IC50: 1.41 ± 0.27 µM

## CC1=NN(c2ccc(S(N)(=O)=O)cc2)C(=O)/C1=C\c1ccc(-c2ccc(Cl)c(C(=O)NCC3CC3)c2)o1 [Compound 68, (Z)-2-Chloro-N-(cyclopropylmethyl)-5-(5-((3-methyl-5-oxo-1-(4-sulfamoylphenyl)-1,5-dihydro-4H-pyrazol-4-ylidene)methyl)furan-2-yl)benzamide]
[1]
  IC50: > 25 µM

## COc1cccc(NC(=O)c2cc(-c3ccc(/C=C4\C(=O)N(c5cccc(C#N)c5)N=C4C)o3)ccc2Cl)c1 [Compound 74, (Z)-2-chloro-5-(5-((1-(3-cyanophenyl)-3-methyl-5-oxo-1,5-dihydro-4H-pyrazol-4-ylidene)methyl)furan-2-yl)-N-(3-methoxyphenyl)benzamide]
[1]
  IC50: > 25 µM
[1]; carboxylic acid replaced by nitrile
  Ku inhibitory activity (qualitative): complete abolition of Ku inhibitory activity
